In brackets after ≈: the same amount, converted by molar mass. Bounds are passed on as bounds.

One experiment has as its target E. coli DNA gyrase (Escherichia coli (strain K12), UniProt P0AES6). Nature of the experiment: DNA gyrase inhibition assay (Inspiralis, streptavidin-coated plates). The class given is biochemical. The procedure:
(§1) Inhibitory activities for compounds of the present invention were determined on E. coli and S. aureus DNA gyrase and topoisomerase IV in an assay from Inspiralis on streptavidin-coated 96-well microtiter plates from Thermo scientific Pierce. […] After washing off the unbound oligonucleotide, the enzyme test was performed. […] Reaction solutions were incubated at 37° C. for 30 min. After that, the TF buffer (50 mM NaOAc with pH 5.0, 50 mM NaCl and 50 mM MgCl2) was added to terminate the enzymatic reaction. After additional incubation for 30 min at rt, during which biotin-oligonucleotide-plasmid triplex was formed, the unbound plasmid was washed off using TF buffer and SybrGOLD in T10 buffer (10 mM Tris HCl with pH 8.0 and 1 mM EDTA) was added. […] GraphPad Prism 6.0 software was used to calculate the IC50 values. The result is given as the average value of three independent measurements. […] Chemoth.

A further experiment relates to E. faecalis ATCC 29212. As to the kind of experiment: Microbroth dilution MIC (CLSI). The conditions noted are these: Enterococcus faecalis, ATCC29212, read-out: MIC (μg/mL) E. faecalis ATCC 29212. Background: Dilution methods test growth across graded concentrations, often in twofold steps.
In a further experiment the test system is S. aureus ATCC 29213. As to the kind of experiment: Microbroth dilution MIC (CLSI). Particulars: Staphylococcus aureus, ATCC29213, read-out: MIC (μg/mL) S. aureus ATCC 29213.
The subject of another experiment is E. coli ATCC 25922. As to the kind of experiment: Microbroth dilution MIC (CLSI). The conditions noted are these: Escherichia coli, ATCC25922, read-out: MIC (μg/mL) E. coli ATCC 25922.
Another experiment has as its system E. faecium ATCC 35667. Nature of the experiment: Microbroth dilution MIC (CLSI). The conditions noted are these: Enterococcus faecium, ATCC35667, read-out: MIC (μg/mL) E. faecium ATCC 35667.
Experiment [1] deals with S. aureus topoisomerase IV (Staphylococcus aureus, UniProt P0C1S7). Nature of the experiment: Topoisomerase IV inhibition assay (Inspiralis, streptavidin-coated plates). The class given is biochemical. Particulars: read-out: IC50 DNA topoisomerase IV from S. aureus. As to the method: Inhibitory activities for compounds of the present invention were determined on E. coli and S. aureus DNA gyrase and topoisomerase IV in an assay from Inspiralis on streptavidin-coated 96-well microtiter plates from Thermo scientific Pierce. First, the plates were rehydrated with buffer (20 mM Tris-HCl with pH 7.6, 0.01% w/v BSA, 0.05% v/v Tween 20, 137 mM NaCl) and the biotinylated oligonucleotide was then immobilized. After washing off the unbound oligonucleotide, the enzyme test was performed. […] Reaction solutions were incubated at 37° C. for 30 min. After that, the TF buffer (50 mM NaOAc with pH 5.0, 50 mM NaCl and 50 mM MgCl2) was added to terminate the enzymatic reaction. After additional incubation for 30 min at rt, during which biotin-oligonucleotide-plasmid triplex was formed, the unbound plasmid was washed off using TF buffer and SybrGOLD in T10 buffer (10 mM Tris HCl with pH 8.0 and 1 mM EDTA) was added. The fluorescence was measured with a microplate reader (BioTek Synergy H4, excitation: 485 nm, emission: 535 nm). […]. GraphPad Prism 6.0 software was used to calculate the IC50 values. The result is given as the average value of three independent measurements. […]. Chemoth. 66, 2061-2096 (2011))) for E. coli and S. aureus topoisomerase IV) was used.

In a further experiment the target is S. aureus DNA gyrase (Staphylococcus aureus, UniProt P0A0K8). As to the kind of experiment: biochemical. Particulars: read-out: IC50 DNA gyrase from S. aureus. As to the method:
as §1

Another experiment has as its target E. coli topoisomerase IV (Escherichia coli (strain K12), UniProt P20083). Nature of the experiment: Topoisomerase IV inhibition assay (Inspiralis, streptavidin-coated plates). In kind it is biochemical. As to the method: Inhibitory activities for compounds of the present invention were determined on E. coli and S. aureus DNA gyrase and topoisomerase IV in an assay from Inspiralis on streptavidin-coated 96-well microtiter plates from Thermo scientific Pierce. […] After washing off the unbound oligonucleotide, the enzyme test was performed. […] Reaction solutions were incubated at 37° C. for 30 min. After that, the TF buffer (50 mM NaOAc with pH 5.0, 50 mM NaCl and 50 mM MgCl2) was added to terminate the enzymatic reaction. After additional incubation for 30 min at rt, during which biotin-oligonucleotide-plasmid triplex was formed, the unbound plasmid was washed off using TF buffer and SybrGOLD in T10 buffer (10 mM Tris HCl with pH 8.0 and 1 mM EDTA) was added. […] Initial screening was done at 100 or 10 nM concentration of inhibitors against E. coli DNA gyrase or 1 μM or 100 nM concentration against S. aureus DNA gyrase and E. coli and S. aureus topo IV. […] GraphPad Prism 6.0 software was used to calculate the IC50 values. The result is given as the average value of three independent measurements. […] Chemoth.

Chain of E. coli topoisomerase IV (P20083 whole entry, looked up): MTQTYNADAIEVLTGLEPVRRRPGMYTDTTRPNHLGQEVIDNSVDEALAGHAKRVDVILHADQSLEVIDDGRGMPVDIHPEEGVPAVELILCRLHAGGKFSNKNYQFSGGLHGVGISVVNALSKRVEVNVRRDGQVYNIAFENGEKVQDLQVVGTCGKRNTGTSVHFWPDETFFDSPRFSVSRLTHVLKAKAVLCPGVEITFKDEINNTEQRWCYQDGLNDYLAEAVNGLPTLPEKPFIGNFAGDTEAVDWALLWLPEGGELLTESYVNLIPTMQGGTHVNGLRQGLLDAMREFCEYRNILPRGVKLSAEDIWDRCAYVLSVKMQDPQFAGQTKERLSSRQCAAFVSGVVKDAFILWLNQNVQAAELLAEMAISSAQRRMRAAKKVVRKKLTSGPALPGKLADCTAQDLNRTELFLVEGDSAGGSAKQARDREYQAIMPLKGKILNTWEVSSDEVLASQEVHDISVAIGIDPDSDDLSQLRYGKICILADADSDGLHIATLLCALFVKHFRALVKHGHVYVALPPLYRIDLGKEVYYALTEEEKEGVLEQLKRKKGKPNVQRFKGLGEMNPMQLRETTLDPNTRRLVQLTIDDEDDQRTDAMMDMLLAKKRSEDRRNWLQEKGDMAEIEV
Chain of E. coli topoisomerase IV (P0AFI2 whole entry partner, looked up): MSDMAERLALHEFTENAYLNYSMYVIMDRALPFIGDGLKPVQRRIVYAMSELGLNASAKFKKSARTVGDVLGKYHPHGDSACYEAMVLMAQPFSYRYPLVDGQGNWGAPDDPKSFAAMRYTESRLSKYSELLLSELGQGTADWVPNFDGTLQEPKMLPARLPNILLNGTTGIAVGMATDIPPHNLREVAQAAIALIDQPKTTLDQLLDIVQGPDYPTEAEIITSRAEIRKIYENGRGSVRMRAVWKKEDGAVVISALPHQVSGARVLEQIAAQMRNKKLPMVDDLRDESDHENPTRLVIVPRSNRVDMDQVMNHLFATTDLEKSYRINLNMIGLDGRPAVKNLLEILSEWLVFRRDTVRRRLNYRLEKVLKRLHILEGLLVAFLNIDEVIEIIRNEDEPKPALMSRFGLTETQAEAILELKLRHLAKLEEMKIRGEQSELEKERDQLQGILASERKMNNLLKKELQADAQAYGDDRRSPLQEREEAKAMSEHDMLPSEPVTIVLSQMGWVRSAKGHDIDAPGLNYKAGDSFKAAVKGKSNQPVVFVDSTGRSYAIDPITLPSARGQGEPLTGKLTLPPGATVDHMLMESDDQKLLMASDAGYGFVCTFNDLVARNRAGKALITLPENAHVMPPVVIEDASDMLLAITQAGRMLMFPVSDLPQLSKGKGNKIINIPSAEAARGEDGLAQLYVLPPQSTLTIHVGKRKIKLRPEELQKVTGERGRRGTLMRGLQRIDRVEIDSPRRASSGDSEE

For orientation: IC50 means the midpoint of a concentration-inhibition curve. Consider `Cc1[nH]c(C(=O)Nc2nc3c(O)cc(C(=O)O)cc3s2)c(Cl)c1Cl` [Example 7, 2-(3,4-dichloro-5-methyl-1H-pyrrole-2-carboxamido)-4-hydroxybenzo[d]thiazole-6-carboxylic acid], for which, on E. coli DNA gyrase, the IC50 was less than 0.005 µM. For the same compound, the MIC is 2 µg/mL (≈ 5.18 µM) in the experiment with E. faecalis ATCC 29212, 16 µg/mL (≈ 41.4 µM) in the experiment with S. aureus ATCC 29213, more than 64 µg/mL with E. coli ATCC 25922 and 1.21 µg/mL (≈ 3.13 µM) in the experiment with E. faecium ATCC 35667.
In the same order, the values of `COc1cc(C(=O)O)cc2sc(NC(=O)c3[nH]c(C)c(Cl)c3Cl)nc12` [Example 8, 2-(3,4-dichloro-5-methyl-1H-pyrrole-2-carboxamido)-4-methoxybenzo[d]thiazole-6-carboxylic acid] are 0.0076 ± 0.0034 µM, 0.25 µg/mL (≈ 0.625 µM), 2 µg/mL (≈ 5 µM), 64 µg/mL (≈ 160 µM) and 1.25 µg/mL (≈ 3.12 µM).
`Cc1[nH]c(C(=O)Nc2nc3c(OCCN)cc(C(=O)O)cc3s2)c(Cl)c1Cl.Cl` [Example 11, 2-((6-carboxy-2-(3,4-dichloro-5-methyl-1H-pyrrole-2-carboxamido)benzo[d]thiazol-4-yl)oxy)ethan-1-aminium chloride] returned an IC50 against E. coli DNA gyrase of less than 0.005 µM. The MIC in the experiment with E. faecalis ATCC 29212, in the experiment with S. aureus ATCC 29213, in the experiment with E. coli ATCC 25922 and in the experiment on E. faecium ATCC 35667 was more than 64 µg/mL in each case.
`Cc1[nH]c(C(=O)Nc2nc3cc(O)c(C(=O)O)cc3s2)c(Cl)c1Cl` [Example 13, 2-(3,4-dichloro-5-methyl-1H-pyrrole-2-carboxamido)-5-hydroxybenzo[d]thiazole-6-carboxylic acid] displayed an IC50 on E. coli DNA gyrase of less than 0.005 µM. Further, the MIC in the experiment with E. faecalis ATCC 29212 is 1 µg/mL (≈ 2.59 µM); with S. aureus ATCC 29213, 16 µg/mL (≈ 41.4 µM); with E. coli ATCC 25922 it was more than 64 µg/mL; in the experiment on E. faecium ATCC 35667, 1.21 µg/mL (≈ 3.13 µM).
The corresponding values for `Cc1[nH]c(C(=O)Nc2nc3ccc(C(=O)O)c(Cl)c3s2)c(Cl)c1Cl` [Example 14, 7-chloro-2-(3,4-dichloro-5-methyl-1H-pyrrole-2-carboxamido)benzo[d]thiazole-6-carboxylic acid] are 0.31 ± 0.03 µM, more than 64 µg/mL, more than 64 µg/mL, more than 64 µg/mL and more than 64 µg/mL.
In the same order, the values of `O=C(O)c1ccc2nc(N(Cc3ccccc3)C(=O)c3cc(Br)c(Br)[nH]3)sc2c1` [Example 15, 2-(N-benzyl-4,5-dibromo-1H-pyrrole-2-carboxamido)benzo[d]thiazole-6-carboxylic acid] are 0.0051 ± 0.0013 µM, 0.21 µg/mL (≈ 0.392 µM), 0.42 µg/mL (≈ 0.785 µM), more than 64 µg/mL and 0.83 µg/mL (≈ 1.55 µM).
In the same order, the values of `Cc1[nH]c(C(=O)N(Cc2ccccc2)c2nc3ccc(C(=O)O)cc3s2)c(Cl)c1Cl` [Example 16, 2-(N-benzyl-3,4-dichloro-5-methyl-1H-pyrrole-2-carboxamido)benzo[d]thiazole-6-carboxylic acid] are less than 0.005 µM, not above 0.0312 µg/mL, not above 0.0312 µg/mL, 64 µg/mL (≈ 139 µM) and 0.36 µg/mL (≈ 0.782 µM).
Regarding `Cc1[nH]c(C(=O)Nc2nc3ccc(-c4nnn[nH]4)cc3s2)c(Cl)c1Cl` [Example 17, N-(6-(1H-tetrazol-5-yl)benzo[d]thiazol-2-yl)-3,4-dichloro-5-methyl-1H-pyrrole-2-carboxamide], the IC50 at E. coli DNA gyrase is less than 0.005 µM. In addition, the MIC with E. faecalis ATCC 29212 was 1 µg/mL (≈ 2.54 µM); in the experiment with S. aureus ATCC 29213, 16 µg/mL (≈ 40.6 µM); with E. coli ATCC 25922 it was more than 64 µg/mL; in the experiment with E. faecium ATCC 35667, 1.23 µg/mL (≈ 3.12 µM).
The corresponding values for `Cc1[nH]c(C(=O)Nc2nc3ccc(C(N)=O)cc3s2)c(Cl)c1Cl` [Example 18, 2-(3,4-dichloro-5-methyl-1H-pyrrole-2-carboxamido)benzo[d]thiazole-6-carboxamide] are 0.011 ± 0.002 µM, more than 64 µg/mL, 1.16 µg/mL (≈ 3.14 µM), more than 64 µg/mL and more than 64 µg/mL.
In the same order, the values of `O=C(NO)c1ccc2nc(NC(=O)c3cc(Br)c(Br)[nH]3)sc2c1` [Example 19, 2-(4,5-dibromo-1H-pyrrole-2-carboxamido)-N-hydroxybenzo[d]thiazole-6-carboxamide] are 0.089 ± 0.02 µM, 64 µg/mL (≈ 139 µM), more than 64 µg/mL, more than 64 µg/mL and more than 64 µg/mL.
On E. coli DNA gyrase, `Cc1[nH]c(C(=O)Nc2nc3ccc(C(=O)NO)cc3s2)c(Cl)c1Cl` [Example 20, 2-(3,4-dichloro-5-methyl-1H-pyrrole-2-carboxamido)-N-hydroxybenzo[d]thiazole-6-carboxamide] showed an IC50 of 0.28 ± 0.01 µM. The MIC is 0.5 µg/mL (≈ 1.3 µM) in the experiment with E. faecalis ATCC 29212, 64 µg/mL (≈ 166 µM) in the experiment with S. aureus ATCC 29213, more than 64 µg/mL in the experiment on E. coli ATCC 25922 and 38.5 µg/mL (≈ 100 µM) in the experiment with E. faecium ATCC 35667.
The corresponding values for `O=C(O)CCNC(=O)c1ccc2nc(NC(=O)c3cc(Br)c(Br)[nH]3)sc2c1` [Example 21, 3-(2-(4,5-dibromo-1H-pyrrole-2-carboxamido)benzo[d]thiazole-6-carboxamido)propanoic acid] are 0.012 ± 0.005 µM, more than 64 µg/mL, more than 64 µg/mL, more than 64 µg/mL and more than 64 µg/mL.
Regarding `Cc1[nH]c(C(=O)Nc2nc3ccc(C(=O)NCCC(=O)O)cc3s2)c(Cl)c1Cl` [Example 22, 3-(2-(3,4-dichloro-5-methyl-1H-pyrrole-2-carboxamido)benzo[d]thiazole-6-carboxamido)propanoic acid], half-maximal inhibition at E. coli DNA gyrase (IC50) required 0.007 ± 0.0009 µM. The MIC was 2 µg/mL (≈ 4.53 µM) in the experiment on E. faecalis ATCC 29212, 32 µg/mL (≈ 72.5 µM) in the experiment on S. aureus ATCC 29213, more than 64 µg/mL in the experiment with E. coli ATCC 25922 and 5.52 µg/mL (≈ 12.5 µM) with E. faecium ATCC 35667.
In the case of `Cc1[nH]c(C(=O)Nc2nc3ccc(C(=O)NCC(=O)O)cc3s2)c(Cl)c1Cl` [Example 23, (2-(3,4-dichloro-5-methyl-1H-pyrrole-2-carboxamido)benzo[d]thiazole-6-carbonyl)glycine], the IC50 is less than 0.4 µM in experiment [1], 0.0071 ± 0.0032 µM on E. coli DNA gyrase, less than 0.02 µM at S. aureus DNA gyrase and less than 0.4 µM against E. coli topoisomerase IV. The MIC was 16 µg/mL (≈ 37.4 µM) in the experiment with E. faecalis ATCC 29212, 64 µg/mL (≈ 150 µM) in the experiment on S. aureus ATCC 29213 and more than 64 µg/mL in the experiment on E. coli ATCC 25922.
`Cc1[nH]c(C(=O)Nc2nc3c(OCc4cccc(C(=O)O)c4)cc(C(=O)O)cc3s2)c(Cl)c1Cl` [Example 24, 4-((3-carboxybenzyl)oxy)-2-(3,4-dichloro-5-methyl-1H-pyrrole-2-carboxamido)benzo[d]thiazole-6-carboxylic acid]: the IC50 in experiment [1] is less than 0.4 µM; at E. coli DNA gyrase, less than 0.005 µM; on S. aureus DNA gyrase, less than 0.02 µM; against E. coli topoisomerase IV it was less than 0.4 µM. The MIC in the experiment with E. faecalis ATCC 29212 was 1.5 µg/mL (≈ 2.88 µM); in the experiment with S. aureus ATCC 29213, more than 64 µg/mL; in the experiment on E. coli ATCC 25922, more than 64 µg/mL.
With `Cc1[nH]c(C(=O)Nc2nc3c(OCc4cccc(F)c4)cc(C(=O)O)cc3s2)c(Cl)c1Cl` [Example 30, 2-(3,4-dichloro-5-methyl-1H-pyrrole-2-carboxamido)-4-((3-fluorobenzyl)oxy)benzo[d]thiazole-6-carboxylic acid], the figures for the IC50 (in experiment [1]; at S. aureus DNA gyrase) were less than 0.4 µM and less than 0.02 µM, respectively. Further, the MIC in the experiment on E. faecalis ATCC 29212 was 0.001 µg/mL (≈ 0.00202 µM); in the experiment with S. aureus ATCC 29213 it was 0.0625 µg/mL (≈ 0.126 µM); in the experiment with E. coli ATCC 25922, more than 64 µg/mL.

Values taken from patent US12258342B2, “Class of DNA gyrase and/or topoisomerase IV inhibitors with activity against gram-positive and gram-negative bacteria” (Univerza v Ljubljani, priority 2018, dated 2025).
